ChEMBL document CHEMBL5678810

What was measured:
[1] = biological target: STE20-like serine/threonine-protein kinase (Homo sapiens) (UniProt Q9H2G2); experiment: Inhibition of T7 bacteriophage fused human SLK at 10 uM by KINOMEscan analysis relative to control
[2] = biological target: STE20/SPS1-related proline-alanine-rich protein kinase (Homo sapiens) (UniProt Q9UEW8); experiment: Inhibition of T7 bacteriophage fused human STK39 at 10 uM by KINOMEscan analysis relative to control
[3] = biological target: Tyrosine-protein kinase SYK (Homo sapiens) (UniProt P43405); experiment: Inhibition of T7 bacteriophage fused human SYK at 10 uM by KINOMEscan analysis relative to control
[4] = biological target: T1, Serine/threonine-protein kinase TAO1 (Homo sapiens) (UniProt Q7L7X3); experiment: Inhibition of T7 bacteriophage fused human TAOK1 at 10 uM by KINOMEscan analysis relative to control
T1 sequence (whole entry): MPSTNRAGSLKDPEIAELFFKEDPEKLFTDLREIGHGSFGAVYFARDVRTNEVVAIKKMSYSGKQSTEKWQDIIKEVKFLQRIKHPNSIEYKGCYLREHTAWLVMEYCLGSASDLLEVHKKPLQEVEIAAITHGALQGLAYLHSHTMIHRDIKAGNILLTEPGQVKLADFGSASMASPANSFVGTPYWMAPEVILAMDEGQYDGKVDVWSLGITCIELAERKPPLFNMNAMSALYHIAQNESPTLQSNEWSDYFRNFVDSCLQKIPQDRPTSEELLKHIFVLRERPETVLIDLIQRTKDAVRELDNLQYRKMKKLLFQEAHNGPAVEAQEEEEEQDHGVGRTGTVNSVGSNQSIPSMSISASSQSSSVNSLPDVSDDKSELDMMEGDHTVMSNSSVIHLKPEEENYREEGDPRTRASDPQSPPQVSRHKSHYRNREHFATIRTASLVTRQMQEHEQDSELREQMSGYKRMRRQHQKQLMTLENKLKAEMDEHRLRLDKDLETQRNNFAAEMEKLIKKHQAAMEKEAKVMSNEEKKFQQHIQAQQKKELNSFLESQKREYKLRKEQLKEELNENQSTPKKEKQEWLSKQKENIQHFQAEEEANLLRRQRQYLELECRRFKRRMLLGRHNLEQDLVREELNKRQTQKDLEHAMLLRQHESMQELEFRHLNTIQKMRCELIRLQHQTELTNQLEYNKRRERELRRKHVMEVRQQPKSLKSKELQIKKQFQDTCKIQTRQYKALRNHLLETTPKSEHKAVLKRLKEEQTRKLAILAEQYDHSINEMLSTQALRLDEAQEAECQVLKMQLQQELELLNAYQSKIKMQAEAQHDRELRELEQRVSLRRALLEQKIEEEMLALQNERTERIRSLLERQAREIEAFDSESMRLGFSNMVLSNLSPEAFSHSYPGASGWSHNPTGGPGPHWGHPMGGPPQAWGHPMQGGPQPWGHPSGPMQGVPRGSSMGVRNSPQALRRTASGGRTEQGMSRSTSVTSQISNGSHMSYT

[5] = biological target: Dual specificity testis-specific protein kinase 1 (Homo sapiens) (UniProt Q15569); experiment: Inhibition of T7 bacteriophage fused human TESK1 at 10 uM by KINOMEscan analysis relative to control
[6] = biological target: Tyrosine-protein kinase receptor Tie-1 (Homo sapiens) (UniProt P35590); experiment: Inhibition of T7 bacteriophage fused human TIE1 at 10 uM by KINOMEscan analysis relative to control
[7] = biological target: Non-receptor tyrosine-protein kinase TYK2 (Homo sapiens) (UniProt P29597); experiment: Inhibition of T7 bacteriophage fused human TYK2 JH2 pseudokinase domain at 10 uM by KINOMEscan analysis relative to control
[8] = biological target: T2, Serine/threonine-protein kinase ULK1 (Homo sapiens) (UniProt O75385); experiment: Inhibition of T7 bacteriophage fused human ULK1 at 10 uM by KINOMEscan analysis relative to control
T2 sequence (whole entry): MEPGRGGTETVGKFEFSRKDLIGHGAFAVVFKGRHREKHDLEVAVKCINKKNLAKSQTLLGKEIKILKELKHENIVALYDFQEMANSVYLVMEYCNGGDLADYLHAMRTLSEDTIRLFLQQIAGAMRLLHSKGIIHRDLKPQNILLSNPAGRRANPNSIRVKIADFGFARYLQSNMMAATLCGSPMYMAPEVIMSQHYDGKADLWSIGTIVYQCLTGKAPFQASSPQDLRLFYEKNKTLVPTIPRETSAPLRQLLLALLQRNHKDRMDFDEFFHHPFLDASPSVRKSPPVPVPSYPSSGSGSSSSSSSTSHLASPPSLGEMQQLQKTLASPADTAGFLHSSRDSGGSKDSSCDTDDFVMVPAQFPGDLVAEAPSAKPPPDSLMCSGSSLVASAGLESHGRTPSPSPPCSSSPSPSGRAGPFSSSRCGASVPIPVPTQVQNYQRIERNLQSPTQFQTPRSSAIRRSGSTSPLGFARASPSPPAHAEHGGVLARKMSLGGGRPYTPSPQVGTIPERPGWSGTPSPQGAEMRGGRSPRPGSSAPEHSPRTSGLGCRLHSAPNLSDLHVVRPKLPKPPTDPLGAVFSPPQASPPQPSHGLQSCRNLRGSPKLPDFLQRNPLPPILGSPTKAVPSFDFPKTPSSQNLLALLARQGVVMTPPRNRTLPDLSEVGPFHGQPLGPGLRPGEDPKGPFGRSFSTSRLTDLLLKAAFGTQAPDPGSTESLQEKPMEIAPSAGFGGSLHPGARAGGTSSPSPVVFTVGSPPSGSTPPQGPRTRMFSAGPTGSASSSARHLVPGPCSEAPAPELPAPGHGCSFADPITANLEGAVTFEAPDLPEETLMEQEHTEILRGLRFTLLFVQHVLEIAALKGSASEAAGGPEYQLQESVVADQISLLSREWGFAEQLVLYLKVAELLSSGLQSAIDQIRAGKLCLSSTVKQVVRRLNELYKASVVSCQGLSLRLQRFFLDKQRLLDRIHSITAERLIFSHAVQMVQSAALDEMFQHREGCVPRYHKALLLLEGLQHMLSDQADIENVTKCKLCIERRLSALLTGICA

[9] = biological target: Mitogen-activated protein kinase kinase kinase 20 (Homo sapiens) (UniProt Q9NYL2); experiment: Inhibition of T7 bacteriophage fused human ZAK at 10 uM by KINOMEscan analysis relative to control
Mitogen-activated protein kinase kinase kinase 20 (Homo sapiens), sequence (Q9NYL2 2-800 limits assumed): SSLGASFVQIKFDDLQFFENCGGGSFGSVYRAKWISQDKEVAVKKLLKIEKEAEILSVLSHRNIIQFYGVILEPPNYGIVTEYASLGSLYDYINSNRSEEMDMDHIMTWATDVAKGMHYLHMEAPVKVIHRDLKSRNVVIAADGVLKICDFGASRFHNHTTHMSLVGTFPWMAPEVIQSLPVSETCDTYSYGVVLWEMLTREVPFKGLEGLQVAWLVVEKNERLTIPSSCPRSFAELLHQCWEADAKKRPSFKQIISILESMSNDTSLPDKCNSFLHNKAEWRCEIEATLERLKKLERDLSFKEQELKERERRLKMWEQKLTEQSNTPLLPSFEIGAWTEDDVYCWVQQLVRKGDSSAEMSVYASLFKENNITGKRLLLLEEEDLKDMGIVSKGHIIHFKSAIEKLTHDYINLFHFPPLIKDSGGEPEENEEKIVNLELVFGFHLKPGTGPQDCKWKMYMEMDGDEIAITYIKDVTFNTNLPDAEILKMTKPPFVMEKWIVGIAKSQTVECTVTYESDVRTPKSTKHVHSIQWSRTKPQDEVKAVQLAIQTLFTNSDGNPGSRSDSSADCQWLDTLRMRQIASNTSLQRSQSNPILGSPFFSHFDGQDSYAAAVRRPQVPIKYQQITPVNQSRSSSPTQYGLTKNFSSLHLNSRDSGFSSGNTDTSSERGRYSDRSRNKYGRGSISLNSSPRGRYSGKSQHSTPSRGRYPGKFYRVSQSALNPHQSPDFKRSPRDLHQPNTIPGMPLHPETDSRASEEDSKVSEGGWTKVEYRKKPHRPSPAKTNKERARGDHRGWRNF

Dual specificity testis-specific protein kinase 1 (Homo sapiens), sequence (Q15569 whole entry, looked up, the tested form may be a part): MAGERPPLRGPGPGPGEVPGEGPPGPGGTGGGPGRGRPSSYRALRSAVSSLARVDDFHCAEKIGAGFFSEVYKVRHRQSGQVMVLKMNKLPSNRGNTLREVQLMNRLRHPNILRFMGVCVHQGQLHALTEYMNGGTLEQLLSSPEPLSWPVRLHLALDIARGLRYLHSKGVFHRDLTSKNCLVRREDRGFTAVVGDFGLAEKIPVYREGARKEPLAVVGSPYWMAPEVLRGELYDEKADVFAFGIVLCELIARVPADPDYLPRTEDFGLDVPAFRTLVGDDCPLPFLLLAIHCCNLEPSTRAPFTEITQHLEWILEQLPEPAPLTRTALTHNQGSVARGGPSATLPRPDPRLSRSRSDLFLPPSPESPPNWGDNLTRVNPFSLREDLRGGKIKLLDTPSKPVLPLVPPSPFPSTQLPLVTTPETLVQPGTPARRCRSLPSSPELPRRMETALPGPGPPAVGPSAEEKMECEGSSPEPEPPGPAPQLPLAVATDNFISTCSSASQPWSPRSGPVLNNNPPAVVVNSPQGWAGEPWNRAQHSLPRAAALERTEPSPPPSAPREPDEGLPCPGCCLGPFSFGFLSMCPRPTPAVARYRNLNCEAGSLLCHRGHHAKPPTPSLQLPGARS
Non-receptor tyrosine-protein kinase TYK2 (Homo sapiens), sequence (P29597 whole entry, the tested form may be a part): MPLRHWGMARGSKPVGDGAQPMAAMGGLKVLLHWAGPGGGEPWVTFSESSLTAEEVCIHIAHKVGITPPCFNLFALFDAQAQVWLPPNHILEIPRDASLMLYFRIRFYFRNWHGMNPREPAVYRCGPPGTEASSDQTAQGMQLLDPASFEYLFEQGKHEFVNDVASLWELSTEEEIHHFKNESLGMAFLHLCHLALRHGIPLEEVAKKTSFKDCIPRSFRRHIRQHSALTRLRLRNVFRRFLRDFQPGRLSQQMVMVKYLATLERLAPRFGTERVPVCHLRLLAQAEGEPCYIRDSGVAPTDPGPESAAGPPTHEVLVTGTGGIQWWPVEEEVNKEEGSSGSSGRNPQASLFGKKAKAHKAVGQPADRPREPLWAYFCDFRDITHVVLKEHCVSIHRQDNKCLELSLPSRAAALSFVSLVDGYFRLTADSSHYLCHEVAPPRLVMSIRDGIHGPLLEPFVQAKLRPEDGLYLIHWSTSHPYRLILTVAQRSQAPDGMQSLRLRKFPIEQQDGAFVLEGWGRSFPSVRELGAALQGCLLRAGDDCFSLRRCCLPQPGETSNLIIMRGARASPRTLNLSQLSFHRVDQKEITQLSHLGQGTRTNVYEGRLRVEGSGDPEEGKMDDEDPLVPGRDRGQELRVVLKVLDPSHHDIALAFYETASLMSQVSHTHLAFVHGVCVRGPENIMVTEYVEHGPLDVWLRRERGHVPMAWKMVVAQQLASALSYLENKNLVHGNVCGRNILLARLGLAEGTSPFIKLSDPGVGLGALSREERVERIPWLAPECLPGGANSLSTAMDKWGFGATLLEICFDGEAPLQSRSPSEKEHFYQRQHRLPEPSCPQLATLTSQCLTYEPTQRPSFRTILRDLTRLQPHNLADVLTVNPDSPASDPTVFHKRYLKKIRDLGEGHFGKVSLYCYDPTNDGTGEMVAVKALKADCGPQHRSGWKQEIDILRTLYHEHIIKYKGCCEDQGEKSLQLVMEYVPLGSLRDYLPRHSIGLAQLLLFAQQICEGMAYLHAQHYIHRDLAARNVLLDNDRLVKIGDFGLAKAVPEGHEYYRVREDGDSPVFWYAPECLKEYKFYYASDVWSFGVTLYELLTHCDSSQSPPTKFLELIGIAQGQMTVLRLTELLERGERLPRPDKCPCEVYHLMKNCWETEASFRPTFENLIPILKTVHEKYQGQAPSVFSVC
STE20-like serine/threonine-protein kinase (Homo sapiens), sequence (Q9H2G2 whole entry, looked up, the tested form may be a part): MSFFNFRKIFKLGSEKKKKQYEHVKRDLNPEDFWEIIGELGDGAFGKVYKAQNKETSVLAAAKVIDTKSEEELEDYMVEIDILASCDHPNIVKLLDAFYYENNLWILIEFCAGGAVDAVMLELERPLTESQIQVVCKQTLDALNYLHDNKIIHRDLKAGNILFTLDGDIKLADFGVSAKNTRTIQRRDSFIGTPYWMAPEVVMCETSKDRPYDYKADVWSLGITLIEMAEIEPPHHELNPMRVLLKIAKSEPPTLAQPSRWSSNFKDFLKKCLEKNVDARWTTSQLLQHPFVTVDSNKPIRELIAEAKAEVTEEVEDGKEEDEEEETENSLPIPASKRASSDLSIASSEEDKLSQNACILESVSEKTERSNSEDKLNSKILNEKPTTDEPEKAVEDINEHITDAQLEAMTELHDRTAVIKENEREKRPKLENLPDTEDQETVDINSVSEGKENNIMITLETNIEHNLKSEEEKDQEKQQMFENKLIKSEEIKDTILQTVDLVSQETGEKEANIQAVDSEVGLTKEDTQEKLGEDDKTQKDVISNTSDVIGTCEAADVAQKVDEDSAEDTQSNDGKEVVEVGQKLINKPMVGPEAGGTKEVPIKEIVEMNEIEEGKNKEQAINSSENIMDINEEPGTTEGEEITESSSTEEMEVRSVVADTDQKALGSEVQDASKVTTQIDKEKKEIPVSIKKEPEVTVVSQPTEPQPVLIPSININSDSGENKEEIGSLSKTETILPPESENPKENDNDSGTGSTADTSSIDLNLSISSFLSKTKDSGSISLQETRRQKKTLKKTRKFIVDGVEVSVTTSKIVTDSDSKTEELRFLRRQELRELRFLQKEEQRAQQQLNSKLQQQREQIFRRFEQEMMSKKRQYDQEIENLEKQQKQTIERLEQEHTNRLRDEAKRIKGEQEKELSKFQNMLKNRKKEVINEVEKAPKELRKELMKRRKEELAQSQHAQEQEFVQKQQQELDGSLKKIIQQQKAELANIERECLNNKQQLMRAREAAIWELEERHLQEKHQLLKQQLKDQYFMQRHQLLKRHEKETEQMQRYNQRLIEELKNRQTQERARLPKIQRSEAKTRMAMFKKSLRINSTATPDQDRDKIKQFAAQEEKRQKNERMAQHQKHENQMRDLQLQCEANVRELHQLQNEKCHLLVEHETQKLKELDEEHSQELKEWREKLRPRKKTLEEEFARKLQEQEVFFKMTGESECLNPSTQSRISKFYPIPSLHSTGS
Tyrosine-protein kinase receptor Tie-1 (Homo sapiens), sequence (P35590 whole entry, the tested form may be a part): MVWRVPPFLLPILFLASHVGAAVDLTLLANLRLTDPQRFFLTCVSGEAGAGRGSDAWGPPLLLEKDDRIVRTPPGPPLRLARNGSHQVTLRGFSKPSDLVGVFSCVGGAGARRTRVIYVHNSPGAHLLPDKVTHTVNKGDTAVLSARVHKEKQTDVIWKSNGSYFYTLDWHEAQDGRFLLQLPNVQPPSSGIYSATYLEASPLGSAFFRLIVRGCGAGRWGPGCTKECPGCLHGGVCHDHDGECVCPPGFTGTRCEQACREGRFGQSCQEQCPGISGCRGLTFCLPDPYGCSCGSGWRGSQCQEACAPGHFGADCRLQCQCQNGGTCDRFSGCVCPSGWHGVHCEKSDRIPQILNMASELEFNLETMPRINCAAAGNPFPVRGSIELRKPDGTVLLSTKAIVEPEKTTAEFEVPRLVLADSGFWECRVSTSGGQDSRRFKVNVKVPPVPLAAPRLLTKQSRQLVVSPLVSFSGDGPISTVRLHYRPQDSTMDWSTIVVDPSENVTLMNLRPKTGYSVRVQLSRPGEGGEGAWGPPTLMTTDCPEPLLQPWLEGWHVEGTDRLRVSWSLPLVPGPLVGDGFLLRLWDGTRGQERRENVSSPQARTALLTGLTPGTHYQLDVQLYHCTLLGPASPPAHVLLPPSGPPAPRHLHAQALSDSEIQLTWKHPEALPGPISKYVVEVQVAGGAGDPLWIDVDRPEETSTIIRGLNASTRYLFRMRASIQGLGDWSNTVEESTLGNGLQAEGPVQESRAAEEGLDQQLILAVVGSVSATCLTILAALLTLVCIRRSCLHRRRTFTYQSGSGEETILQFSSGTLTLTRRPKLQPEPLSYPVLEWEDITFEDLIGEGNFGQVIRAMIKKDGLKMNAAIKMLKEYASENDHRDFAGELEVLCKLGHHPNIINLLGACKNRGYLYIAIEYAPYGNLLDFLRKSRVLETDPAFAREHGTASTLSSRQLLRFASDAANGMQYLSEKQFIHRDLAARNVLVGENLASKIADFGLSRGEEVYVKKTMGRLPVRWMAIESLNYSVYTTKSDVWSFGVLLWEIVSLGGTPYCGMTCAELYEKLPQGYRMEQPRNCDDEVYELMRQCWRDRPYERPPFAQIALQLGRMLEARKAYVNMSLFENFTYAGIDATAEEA

Row | SMILES | inhibition [1] | inhibition [2] | inhibition [3] | inhibition [4] | inhibition [5] | inhibition [6] | inhibition [7] | inhibition [8] | inhibition [9]
1 | COc1cc(C(=O)N2CCC(N3CCN(C)CC3)CC2)ccc1Nc1ncc2c(n1)N(C1CCCC1)c1ccccc1C(=O)N2C | 100% | 100% | 100% | 51% | 100% | 100% | 100% | 100% | 100%
2 | COc1cc(N2CCC(N3CCN(C)CC3)CC2)ccc1Nc1ncc2c(n1)N(C)c1ccccc1C(=O)N2C | 100% | 39% | 100% | 28% | 82% | 100% | 100% | 80% | 99%
3 | CCOc1cc(C(=O)N2CCC(N3CCN(C)CC3)CC2)ccc1Nc1ncc2c(n1)N(C1CCCC1)c1ccccc1C(=O)N2C | 100% | 100% | 100% | 79% | 100% | 100% | 100% | 100% | 100%
